Data as given in patent US11253526B2, “Nanostructured formulations for the delivery of silibinin and other active ingredients for treating ocular diseases” (DISTRETTO TECNOLOGICO SICILIA MICRO E NANO SISTEMI …, priority 2014, dated 2022).
Values joined by “and” are separate entries in the source; they are usually repeats but may differ in a detail not shown here. Equal entries are not always repeated.

Experiments:
[1] = test system: inducible nitric oxide synthase (iNOS); test: Western blot, iNOS level in LPS-stimulated J774 cells; format: cell-based; conditions: LPS 10 μg/mL for 24 hours, pre-treatment
Procedure: (§1) In particular, J774 cells were stimulated with lipopolysaccharide (LPS) at a concentration of 10 μg/mL for 24 hours, stimulation with LPS induces the activation of inflammatory processes such as NFκB nuclear translocation and cytokine production, if not also release of nitrites and nitrosative stress. The cell viability was then evaluated following stimulation with LPS (10 μg/mL for 24 hours) and 2-hour pretreatment of the delivery systems being studied at the different concentrations. […] The anti-inflammatory activity of the delivery systems was then evaluated through the Western Blot analysis. […] The NFκB activation involves the production of proteins and inflammatory mediators such as cyclooxygenase 2 (COX-2) and inducible nitric oxide synthase (iNOS) and consequent increase in the production of nitrites.

ARPE-19 cells [2] = test: LDH release, 20 h pretreatment then 50 μM FeSO4 insult; format: cell-based
Procedure: (§2) Then, the effects of the conjugated and empty system were tested using the compound FeSO4 as oxidative insult, with changes in the cellular redox status. Over 24 hours of incubation, the cells are pre-treated for 20 h and then exposed to insult with 50 μM FeSO4 for three hours [“Pretreatment” 20 h drug+3 h insult]. The viability test conducted to evaluate the toxicity and the ability of protection from damage of the carrier in question is to assess the release of LDH in the culture medium. […] In subsequent experiments, the effects of post-treatment with calixarene based compounds were tested. Therefore, cells were treated with 50 μM FeSO4 for 5 hours and incubated for 20 hours with the various compounds.

[3] = test system: Uveitis induced in Lewis rats; test: Uveitis model induced by LPS endotoxin, topical administration; format: in vivo; conditions: 16 and 72 hours after LPS injection
Procedure: With the aim of verifying the effectiveness of the calixarene system loaded with the active ingredient to the eye site of interest, an experiment was conducted in vivo with an Uveitis model. Uveitis was induced in 160-180 g Lewis rats by single subcutaneous injection in the hind paw of 200 ìg of the LPS endotoxin from Salmonella Minnesota diluted in 0.2 mL PBS, pH 7.4. The control group received only 0.2 mL of PBS in the hind paw. […] The eyes were enucleated for histological and immunohistochemical analysis. The aqueous humor was also taken for protein dosing.

cathepsin D = test: Western blot of cathepsin D after FeSO4 insult and post-treatment; format: cell-based
Description: Cathepsin D is an intracellular aspartyl protease, synthesized in the endoplasmic reticulum as pre-pro-enzyme that is processed up to generate active fragments. According to the cellular environment in which it resides, it can induce or inhibit apoptosis through different mechanisms. The 48 kDa fragment is an active intermediate form from which two additional active fragments are generated; therefore, its reduction is associated with the activation of the proteolytic process, vice versa its increase is indicative of an inhibition of apoptosis. In the presence of oxidative stress, the activation of cathepsin D may activate caspase 8 which in turn activates caspase 3, leading to cell death (Regulatory role of cathepsin D in apoptosis, A. Minarowska et al., (2007) Folia Histochemica et Cytobiologica) (Caspase-8-mediated apoptosis induced by oxidative stress is independent of the intrinsic pathway and dependent on cathepsins H. K. Baumgartner et al., (2007) Am J Physiol Gastrointest Liver Physiol.).

cyclooxygenase 2 (COX-2) = test: Western blot, COX-2 level in LPS-stimulated J774 cells; format: cell-based; conditions: LPS 10 μg/mL for 24 hours, pre-treatment
Procedure: as §1

SIRC corneal cells = test: Cytotoxicity on SIRC corneal cells; format: cell-based; conditions: SIRC corneal (epithelial) cells
Procedure: (§3) The colloidal solutions of calixarene 1, calixarene loaded with active ingredient and active ingredient alone were tested for cytotoxicity: SIRC corneal cells (FIG. 11), J774 macrophages (FIG. 12) and ARPE retinal cells.

[4] = Zeta potential measurement; format: physicochemical; conditions: in PBS, pH 7.4; calixarene nanoaggregates
Procedure: The zeta potential was measured according to the principles of the laser doppler velocimetry and of the light scattering analysis (M3-PALS technique) using a Zetasizer Nano ZSP (Malvern) with a He—Ne laser, power=4.0 mW, wavelength=633 nm.
(§4) The size distribution of micelles was determined through dynamic light scattering measurements using the Malvern Zetasizer Nano ZS. […] The aqueous solutions of micelles (2 mg/mL) were analyzed after filtration through cellulose membrane filters with 5 μm cut off. The average hydrodynamic diameter and the polydispersity index (PDI) were obtained using cumulative analyses of the correlation function. The zeta potential (mV) was calculated by the electrophoretic mobility and using the Smoluchowsky relation, assuming that K·a>>1 (where K and a are the Debye-Hückel parameter and the particle radius, respectively).
(§5) The average diameter, polydispersity index (PDI) and zeta potential of calixarene nanoparticles loaded and not with silibinin were measured using a Zetasizer Nano ZS-90 (Malvern Instrument), the reading was made at an angle of 90° with respect to the incident ray and analyzed in triplicate.

J774 cells = test: Viability / anti-inflammatory activity in J774 cells stimulated with LPS; format: cell-based
Procedure: as §1

ARPE-19 retinal cells = test: Biocompatibility / toxicity on ARPE-19 retinal cells; format: cell-based
Procedure: as §2, §3

[5] = Degradation of curcumin in PBS and serum-free medium; format: physicochemical
ARPE-19 cells [6] = test: LDH release, 50 μM FeSO4 for 5 hours then 20 h post-treatment; format: cell-based; conditions: then 20 hours with compound
Procedure: as §2

[7] = Average hydrodynamic diameter and polydispersity index by DLS / photo-correlation spectroscopy; format: physicochemical; conditions: DLS in PBS, pH 7.4; calixarene nanoaggregates
Procedure: The average diameter and the polydispersity index (PDI) of the SLN-A systems prepared were determined by photo-correlation spectroscopy (PCS) using a Zetasizer Nano ZSP (Malvern Instrument).
The average diameter and the polydispersity index (PDI) of the NLC-B systems coated with INU-EDA and chitosan prepared were determined by photo-correlation spectroscopy (PCS) using a Zetasizer Nano ZSP (Malvern Instrument).
as §4, §5

J774 macrophages = test: Cytotoxicity on J774 macrophages; format: cell-based
Procedure: as §3

[8] = cited from earlier work
PARP-1 protein = test: Western blotting of PARP-1 after H2O2 and post-treatment; format: cell-based; conditions: samples treated with H2O2, post-treatment
Procedure: Lysates of retinal cells exposed to post-treatment with the INUC8PEG system, empty or conjugated with silibinin, were analyzed by western blotting for the expression of the PARP-1 protein, a poly (ADP-ribose) polymerase of 116 kDa involved in DNA repair in response to environmental stress (Calcium Overload Is A Critical Step In Programmed Necrosis Of Arpe-19 Cells Induced By High-Concentration H2O2 Guang-Yu Li et al., (2010) Biomedical And Environmental Sciences). In vivo and in vitro, PARP-1 is processed by Caspase 3 and Caspase 7 with the formation of a 24 kDa DNA-binding domain and an 89 kDa catalytic domain that participates in the apoptosis (Importance of Poly (ADP-ribose) Polymerase and Its Cleavage in Apoptosis F. J Oliver et al., (1998) J. Biol. Chem.).

[9] = 20 h incubation, cells not exposed to FeSO4
[10] = pre-treated 20 h, then FeSO4 (50 μM)

Compound | levels of iNOS [1] | release of LDH (ARPE-19 cells [2]; [9]) | release of LDH (ARPE-19 cells [2]; [10]) | ocular inflammation / histologic damage [3] | protein levels in the aqueous humor [3] | expression levels of cathepsin D (48 kDa band) (cathepsin D) | levels of COX-2 (cyclooxygenase 2 (COX-2)) | protection against insult (LDH release) (ARPE-19 cells [6]) | further results
CCCCCCCCCCCCOc1c2cc(C[N+](C)(C)CCO)cc1Cc1cc(C[N+](C)(C)CCO)cc(c1OCCCCCCCCCCCC)Cc1cc(C[N+](C)(C)CCO)cc(c1OCCCCCCCCCCCC)Cc1cc(C[N+](C)(C)CCO)cc(c1OCCCCCCCCCCCC)C2 [compound 1] | reduces significantly and in a dose-dependent manner | do not significantly change the release of LDH | an effect not observed | the degree of inflammation was not reduced | did not result in a reduction in the protein levels | increases the expression levels of cathepsin D | reduces significantly and in a dose-dependent manner | individually able to protect from the redox status alteration | biocompatibility (SIRC corneal cells): good biocompatibility; Potential ζ [4]: 24 mV; cell viability following stimulation with LPS (J774 cells; LPS 10 μg/mL for 24 hours, 2-hour pretreatment): able to restore the cell viability; anti-inflammatory activity, rank order (J774 cells; macrophages subjected to inflammatory stress with LPS): calixarene loaded with curcumin>>calixarene>>curcumin alone; biocompatibility (ARPE-19 retinal cells; ARPE-19 / ARPE retinal cells): good biocompatibility; toxicity (ARPE-19 retinal cells; concentrations 0.01-1 μM, incubated for 20 hours): caused no toxicity; protective effect towards curcumin ([5]; PBS as a solvent): protects curcumin; PDI [7]: 0.29; Z-average [7]: 44.3 nm; biocompatibility (J774 macrophages): good biocompatibility
COc1cc(/C=C/C(=O)CC(=O)/C=C/c2ccc(O)c(OC)c2)ccc1O [curcumin, diferuloylmethane] | reduces significantly and in a dose-dependent manner |  |  | significantly decreased the histologic damage | most effectively determined the reduction of proteins |  | reduces significantly and in a dose-dependent manner |  | degradation ([5]; in 30 min, 0.1 M PBS and serum-free medium): 80-90% and 90%
Silibinin [reference compound] |  | reduces the release of LDH | an effect not observed | decreased but not significant ocular inflammation | a trend but not significant | increases the expression levels of cathepsin D |  | individually able to protect from the redox status alteration | solubility in water [8]: 430 µg/mL; inhibition of apoptosis induced by oxidative damage (PARP-1 protein): reduces the apoptotic process, however with less efficiency than the conjugated carrier
